Test results published in ChEMBL document CHEMBL1201862, “PubChem BioAssay data set” (2004).
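Values below derive from 48-hour exposures of cells grown in 96-well plates, with endpoints linearly interpolated between the two concentrations bracketing the appropriate inhibition level. GI50 marks 50% less growth.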 Active and inactive are the calls of the source. Cut-off read from the data, not from the text of the source: active = GI50 up to about 1.1 µM and inactive = higher.

Columns and labels:
Assay in all cases: inhibition of tumour cell growth, NCI panel, 48 h
OVCAR-8 = system: OVCAR-8
CAKI-1 = system: CAKI-1
786-0 = system: 786-0
DU-145 = system: DU-145
UACC-257 = system: UACC-257
TK-10 = system: TK-10
EKVX = system: EKVX
KM12 = system: KM12
MDA-MB-435 = system: MDA-MB-435
ACHN = system: ACHN
UO-31 = system: UO-31
SK-MEL-28 = system: SK-MEL-28
MOLT-4 = system: MOLT-4
SK-MEL-2 = system: SK-MEL-2
K562 = system: K562
NCI/ADR-RES = system: NCI/ADR-RES
Hs-578T = system: Hs-578T
MDA-N = system: MDA-N
HCT-15 = system: HCT-15
HL-60 = system: HL-60

Row | SMILES | GI50 (OVCAR-8) | GI50 (CAKI-1) | GI50 (786-0) | GI50 (DU-145) | GI50 (UACC-257) | GI50 (TK-10) | GI50 (EKVX) | GI50 (KM12) | GI50 (MDA-MB-435) | GI50 (ACHN) | GI50 (UO-31) | GI50 (SK-MEL-28) | GI50 (MOLT-4) | GI50 (SK-MEL-2) | GI50 (K562) | GI50 (NCI/ADR-RES) | GI50 (Hs-578T) | GI50 (MDA-N) | GI50 (HCT-15) [µM] | GI50 (HL-60)
1 | CCOC(=O)/C(C(=S)Nc1ccccc1)=C(/N)N1CCCC1 | > 100 µM (inactive) | > 100 µM (inactive) | > 100 µM (inactive) | > 100 µM (inactive) | > 100 µM (inactive) | > 100 µM (inactive) | > 100 µM (inactive) | 61.1 µM (inactive) | 37.9 µM (inactive) | > 100 µM (inactive) | > 100 µM (inactive) | > 100 µM (inactive) | > 100 µM (inactive) | > 100 µM (inactive) | 37 µM (inactive) | > 100 µM (inactive) | 77.4 µM (inactive) | 31 µM (inactive) | > 100 | 49.9 µM (inactive)
2 | N#Cc1c(N)nc(Sc2ccccc2N)c(C#N)c1-c1ccc(Cl)cc1 | 9.12 µM (inactive) | 17.9 µM (inactive) | 6.98 µM (inactive) | 12.7 µM (inactive) | 15.9 µM (inactive) | 13.7 µM (inactive) | 4.29 µM (inactive) | 12.6 µM (inactive) | 11.7 µM (inactive) | 10.7 µM (inactive) | 2.79 µM (inactive) | 33.6 µM (inactive) | 1.37 µM (inactive) | 5.14 µM (inactive) | 3.07 µM (inactive) | 6.4 µM (inactive) | 7.26 µM (inactive) | 9.91 µM (inactive) | 7.4 | > 27.5 µM (inactive)
3 | C=C/C(C)=C\CC1[C@](C)(O)CC[C@H]2C(C)(C)C(=O)CC[C@]12C (some centres undefined) | > 100 µM (inactive) | > 100 µM (inactive) | > 100 µM (inactive) | > 100 µM (inactive) | 64.4 µM (inactive) | > 100 µM (inactive) | > 100 µM (inactive) | 85.5 µM (inactive) | 70.5 µM (inactive) | > 100 µM (inactive) | 23.9 µM (inactive) | > 100 µM (inactive) | 19.1 µM (inactive) | > 100 µM (inactive) | 57.7 µM (inactive) | 60 µM (inactive) | > 100 µM (inactive) | 96.4 µM (inactive) | 51.9 | 12.1 µM (inactive)
4 | CC1(c2sccc2Cl)CC(c2sccc2Cl)=C(C#N)C(=C(C#N)C#N)N1 (centres undefined) | 20.8 µM (inactive) | 20.2 µM (inactive) | 18.4 µM (inactive) | 16 µM (inactive) | 22.4 µM (inactive) | 17.2 µM (inactive) | 18.7 µM (inactive) | 20.9 µM (inactive) | 22 µM (inactive) | 18.5 µM (inactive) | – | 18.2 µM (inactive) | 38.7 µM (inactive) | 20.3 µM (inactive) | – | 22.8 µM (inactive) | 21.5 µM (inactive) | 17.3 µM (inactive) | 17.9 | 34.2 µM (inactive)
5 | COc1cc2oc3ccccc3c(=O)c2cc1CSc1ccccc1N | 33.5 µM (inactive) | 35.9 µM (inactive) | 35.9 µM (inactive) | 21.1 µM (inactive) | 47.5 µM (inactive) | 35.5 µM (inactive) | 24.1 µM (inactive) | 4.62 µM (inactive) | 2.47 µM (inactive) | 19.5 µM (inactive) | – | 18.7 µM (inactive) | 4.83 µM (inactive) | 6.95 µM (inactive) | 3.91 µM (inactive) | 6.5 µM (inactive) | 36 µM (inactive) | 3.27 µM (inactive) | 6.95 | 3.83 µM (inactive)
6 | Cc1ccc2c(=O)cc(-c3cccc(F)c3)[nH]c2n1 | 0.0638 µM (active) | 0.0498 µM (active) | 0.0446 µM (active) | 0.0504 µM (active) | 0.0395 µM (active) | 1.94 µM (inactive) | 0.0719 µM (active) | 0.022 µM (active) | 0.0111 µM (active) | 0.0514 µM (active) | – | 0.64 µM (active) | 0.0542 µM (active) | 0.0398 µM (active) | 0.0313 µM (active) | 0.0196 µM (active) | 0.0237 µM (active) | < 0.012 µM (active) | 0.0381 | 0.0212 µM (active)
7 | NC(=S)NS(=O)(=O)c1ccc(Cl)cc1 | > 100 µM (inactive) | > 100 µM (inactive) | > 100 µM (inactive) | > 100 µM (inactive) | > 100 µM (inactive) | > 100 µM (inactive) | 83.2 µM (inactive) | > 100 µM (inactive) | > 100 µM (inactive) | > 100 µM (inactive) | – | > 100 µM (inactive) | > 100 µM (inactive) | > 100 µM (inactive) | > 100 µM (inactive) | > 100 µM (inactive) | > 100 µM (inactive) | > 100 µM (inactive) | > 100 | > 100 µM (inactive)
8 | Cc1c2cc[n+](CCN3CCCCC3)cc2c(C)c2c1[nH]c1ccc(O)cc12 | 2.04 µM (inactive) | 5.48 µM (inactive) | 2.41 µM (inactive) | 1.89 µM (inactive) | 13.7 µM (inactive) | 15.1 µM (inactive) | 3.92 µM (inactive) | 1.64 µM (inactive) | 10.2 µM (inactive) | 5.92 µM (inactive) | 17.1 µM (inactive) | 6.1 µM (inactive) | – | 11.9 µM (inactive) | 2.69 µM (inactive) | 16.3 µM (inactive) | 2.84 µM (inactive) | 12.1 µM (inactive) | 12.5 | 1.69 µM (inactive)
